Test results published in patent publication US20060105969A1, “Anthelmintic compositions” (priority 1999, published 2006).
Read-outs that look alike come from different tables or passages of the source.

System: L4 Heartworm (D. immitis)
Test: In vitro L4 heartworm (D. immitis) larval motility assay
Type: cell-based, Dirofilaria immitis

Structure (SMILES)	effect in causing mortality or paralysis	Observation score (larval motility), duplicate observations (1 mcg/ml, 2 h post treatment)	Observation score (larval motility), duplicate observations (1 mcg/ml, 4 h post treatment)	Observation score (larval motility), duplicate observations (1 mcg/ml, 24 h post treatment)	Observation score (larval motility), duplicate observations (1 mcg/ml, 48 h post treatment)	Observation score (larval motility), duplicate observations (1 mcg/ml, 72 h post treatment)	Observation score (larval motility), duplicate observations (10 mcg/ml, 2 h post treatment)	Observation score (larval motility), duplicate observations (10 mcg/ml, 4 h post treatment)	Observation score (larval motility), duplicate observations (10 mcg/ml, 24 h post treatment)	Observation score (larval motility), duplicate observations (10 mcg/ml, 48 h post treatment)	Observation score (larval motility), duplicate observations (10 mcg/ml, 72 h post treatment)	Observation score (larval motility), duplicate observations
CO[C@H]1C[C@H](O[C@@H]2/C(C)=C/C[C@@H]3C[C@@H](C[C@]4(CC[C@H](C)[C@@H](C5CCCCC5)O4)O3)OC(=O)[C@@H]3C=C(C)/C(=N/O)[C@H]4OC/C(=C\C=C\[C@@H]2C)[C@]43O)O[C@@H](C)[C@@H]1O [(1), 5-oximino 22,23-dihydro-25-cyclohexylayermectin B1 monosaccharide]	only a modest effect	5/5	5/5	5/5	5/5	5/5	2/2	2/0	3/3	4/4	3/4	
N#Cc1nn(-c2c(Cl)cc(C(F)(F)F)cc2Cl)c(N)c1[S+]([O-])C(F)(F)F (stereo not shown) [Fipronil, 5-amino-3-cyano-1-(2,6-dichloro-4-trifluorome-thylphenyl)-4-trifluoromethylsulphinylpyrazole]	no observable effect at all											5/5
